Laboratory results as given in ChEMBL document CHEMBL1144567, “Linker-modified triamine-linked acridine dimers: synthesis and cytotoxicity properties in vitro and in vivo” (Bioorg Med Chem, 2007).

Columns and labels:
[1] = test system: COLO 205; test: Cytotoxicity against human COLO205 cells after 72 hrs by MTT assay; type: cell-based; settings: COLO 205, 72 h
[2] = Cytotoxicity against SKBR3 cells after 72 hrs by MTT assay; type: cell-based; settings: Homo sapiens, SK-BR-3, 72 h
[3] = test system: Nucleic Acid; test: Binding affinity to Escherichia coli JM83 pUC19 DNA assessed as DNA intercalation assay; type: nucleic-acid assay
[4] = test system: MOLT-4; test: Cytotoxicity against MOLT4 cells after 72 hrs by MTT assay; settings: Homo sapiens, MOLT-4, 72 h
[5] = Cytotoxicity against human HA22T cells after 72 hrs by MTT assay; type: cell-based
[6] = test system: COLO 205; test: Antitumor activity against human COLO205 cells implanted in SCID mouse at 22.5 mg/kg injected into tail vein; type: functional; settings: read-out: TGI
[7] = Toxicity in ICR mouse; type: organism-based; settings: in vivo
[8] = test system: COLO 205; test: Antitumor activity against human COLO205 cells implanted in SCID mouse at 10 mg/kg injected into tail vein; type: functional; settings: read-out: TGI

SMILES	IC50 [1] [nM]	IC50 [2] [nM]	SC50 [3] [µM]	IC50 [4] [nM]	IC50 [5] [nM]	inhibition in vivo at 22.5 mg/kg [6] [%]	MTD [7] [mg/kg]	inhibition in vivo at 10 mg/kg [8] [%]
COc1ccc2nc3cc(Cl)ccc3c(NCCCN(CCCNc3c4ccc(Cl)cc4nc4ccc(OC)cc34)Cc3ccccc3OC)c2c1	3610	710	2	< 10	930			
COc1ccc2nc3cc(Cl)ccc3c(NCCCN(CCCNc3c4ccc(Cl)cc4nc4ccc(OC)cc34)Cc3sccc3C)c2c1	10	70	2	< 10	60			
COc1ccc2nc3cc(Cl)ccc3c(NCCCN(CCCNc3c4ccc(Cl)cc4nc4ccc(OC)cc34)Cc3cccc(OC)c3OC)c2c1	640	790	2	10	620			
COc1ccc2nc3cc(Cl)ccc3c(NCCCCN(CCCNc3c4ccc(Cl)cc4nc4ccc(OC)cc34)Cc3ccoc3)c2c1	320	710		30	440			
COc1ccc2nc3cc(Cl)ccc3c(NCCCN(C)CCCNc3c4ccc(Cl)cc4nc4ccc(OC)cc34)c2c1	160	700		< 20	620	2	22.5	
CCc1ccc(CN(CCCNc2c3ccc(Cl)cc3nc3ccc(OC)cc23)CCCNc2c3ccc(Cl)cc3nc3ccc(OC)cc23)o1	2560	5250		100	3320			
COc1cccc(CN(CCCCNc2c3ccc(Cl)cc3nc3ccc(OC)cc23)CCCNc2c3ccc(Cl)cc3nc3ccc(OC)cc23)c1	250	1300		710	5660			
COc1ccc2nc3cc(Cl)ccc3c(NCCCN(CCCNc3c4ccc(Cl)cc4nc4ccc(OC)cc34)CC3COC(C)(C)O3)c2c1 (stereo not drawn)	5600	6610		< 10	3430			
CCCCCCN(CCCNc1c2ccc(Cl)cc2nc2ccc(OC)cc12)CCCNc1c2ccc(Cl)cc2nc2ccc(OC)cc12	890	6140		90	6950			
COc1ccc2nc3cc(Cl)ccc3c(NCCCN(CCCNc3c4ccc(Cl)cc4nc4ccc(OC)cc34)Cc3cc(Br)cs3)c2c1	720	700		60	840			
COc1cccc(CN(CCCNc2c3ccc(Cl)cc3nc3ccc(OC)cc23)CCCNc2c3ccc(Cl)cc3nc3ccc(OC)cc23)c1	350	680	2	< 10	420			
COc1cccc2c1C(=O)c1c(O)c3c(c(O)c1C2=O)C[C@@](O)(C(=O)CO)C[C@@H]3O[C@H]1C[C@H](N)[C@H](O)[C@H](C)O1 [DOXORUBICIN]	260	290	10		310			
COc1ccc2nc3cc(Cl)ccc3c(NCCCN(CCCNc3c4ccc(Cl)cc4nc4ccc(OC)cc34)Cc3ccc(F)cc3F)c2c1	770	780		< 10	230			
COc1ccc2nc3cc(Cl)ccc3c(NCCCN(CCCNc3c4ccc(Cl)cc4nc4ccc(OC)cc34)CCc3ccccc3)c2c1	700	680		< 10	650			
COc1ccc2nc3cc(Cl)ccc3c(NCCCN(CCCNc3c4ccc(Cl)cc4nc4ccc(OC)cc34)Cc3cc(OC)c(OC)c(OC)c3)c2c1	4500	5040		60	4420			
COc1ccc2nc3cc(Cl)ccc3c(NCCCN(CCCNc3c4ccc(Cl)cc4nc4ccc(OC)cc34)Cc3ccc(Br)s3)c2c1	850	5800	> 20	< 10	1150			
COc1ccc2nc3cc(Cl)ccc3c(NCCCN(CCCNc3c4ccc(Cl)cc4nc4ccc(OC)cc34)Cc3ccccc3)c2c1	750	700	2	700	700			
COc1ccc2nc3cc(Cl)ccc3c(NCCCN(CCCNc3c4ccc(Cl)cc4nc4ccc(OC)cc34)CC3OC(C)(C)OC3C3COC(C)(C)O3)c2c1 (stereo not drawn)	2190	4730		60	4680			

SMILES	IC50 [1] [nM]	IC50 [2] [nM]	SC50 [3] [µM]	IC50 [4] [nM]	IC50 [5] [nM]	inhibition in vivo at 22.5 mg/kg [6] [%]	MTD [7] [mg/kg]	inhibition in vivo at 10 mg/kg [8] [%]
COc1ccc2nc3cc(Cl)ccc3c(NCCCN(CCCNc3c4ccc(Cl)cc4nc4ccc(OC)cc34)Cc3ccc(Cl)cc3)c2c1	200	530		< 10	580			
COc1ccc2nc3cc(Cl)ccc3c(NCCCCN(CCCNc3c4ccc(Cl)cc4nc4ccc(OC)cc34)Cc3cccs3)c2c1	500	680		40	440			
COc1ccc2nc3cc(Cl)ccc3c(NCCCN(CCCNc3c4ccc(Cl)cc4nc4ccc(OC)cc34)Cc3ccsc3)c2c1	560	1170		70	1410			
COc1ccc2nc3cc(Cl)ccc3c(NCCCCN(CCCNc3c4ccc(Cl)cc4nc4ccc(OC)cc34)CC3CC3)c2c1	10	720	2	< 10	510			
COc1ccc2nc3cc(Cl)ccc3c(NCCCNCCCNc3c4ccc(Cl)cc4nc4ccc(OC)cc34)c2c1	410	770	4	< 20	330		10	80
CCN(CCCNc1c2ccc(Cl)cc2nc2ccc(OC)cc12)CCCNc1c2ccc(Cl)cc2nc2ccc(OC)cc12	90	7310		< 20	5330		30	
COc1ccc2nc3cc(Cl)ccc3c(NCCCN(CCCNc3c4ccc(Cl)cc4nc4ccc(OC)cc34)Cc3ccc(Br)o3)c2c1	410	4240	> 20	< 10	1110			
COc1ccc2nc3cc(Cl)ccc3c(NCCCN(CCCNc3c4ccc(Cl)cc4nc4ccc(OC)cc34)Cc3ccccn3)c2c1	10	720	2	< 10	3970		10	0
COc1ccc2nc3cc(Cl)ccc3c(NCCCCN(CCCNc3c4ccc(Cl)cc4nc4ccc(OC)cc34)Cc3ccsc3)c2c1	250	990		< 10	3590			
COc1ccc2nc3cc(Cl)ccc3c(NCCCN(CCCNc3c4ccc(Cl)cc4nc4ccc(OC)cc34)Cc3ccoc3)c2c1	460	690	2	10	360		10	24
CCCN(CCCNc1c2ccc(Cl)cc2nc2ccc(OC)cc12)CCCNc1c2ccc(Cl)cc2nc2ccc(OC)cc12	1460	5780	2	< 20	5980			
COc1ccc2nc3cc(Cl)ccc3c(NCCCN(CCCNc3c4ccc(Cl)cc4nc4ccc(OC)cc34)Cc3ccco3)c2c1	240	840	2	< 10	610			
COc1ccc2nc3cc(Cl)ccc3c(NCCCN(CCCNc3c4ccc(Cl)cc4nc4ccc(OC)cc34)Cc3cccnc3)c2c1	500	640		< 10	740			
COc1ccc(CN(CCCCNc2c3ccc(Cl)cc3nc3ccc(OC)cc23)CCCNc2c3ccc(Cl)cc3nc3ccc(OC)cc23)cc1	390	860		710	5450			
COc1ccc2nc3cc(Cl)ccc3c(NCCCCNCCCNc3c4ccc(Cl)cc4nc4ccc(OC)cc34)c2c1	130	50	4	< 20	330			
COc1ccc2nc3cc(Cl)ccc3c(NCCCN(CCCNc3c4ccc(Cl)cc4nc4ccc(OC)cc34)CC3CC3)c2c1	1270	820	2	< 10	480			
COc1ccc2nc3cc(Cl)ccc3c(NCCCN(CCCNc3c4ccc(Cl)cc4nc4ccc(OC)cc34)CC(O)CO)c2c1 (stereo not drawn)	130	1290		< 10	1720			
COc1ccc2nc3cc(Cl)ccc3c(NCCCCN(CCCNc3c4ccc(Cl)cc4nc4ccc(OC)cc34)Cc3ccco3)c2c1	370	5070		60	4730			
